Reference: article PMC10107917 (ACS Medicinal Chemistry Letters, 2023)
Bridge positions count the residues as written; N and C are the ends. Peptide text beside a SMILES is read from it.

Tests used:
matriptase-2 (MT2) = target: T1, matriptase-2 (MT2) (Homo sapiens, UniProt Q8IU80); assay: Selectivity assay against matriptase-2; type: biochemical; details: Figure S1
T1 construct: purchased Enzo Life Sciences, Switzerland
T1 sequence (Q8IU80 1-811): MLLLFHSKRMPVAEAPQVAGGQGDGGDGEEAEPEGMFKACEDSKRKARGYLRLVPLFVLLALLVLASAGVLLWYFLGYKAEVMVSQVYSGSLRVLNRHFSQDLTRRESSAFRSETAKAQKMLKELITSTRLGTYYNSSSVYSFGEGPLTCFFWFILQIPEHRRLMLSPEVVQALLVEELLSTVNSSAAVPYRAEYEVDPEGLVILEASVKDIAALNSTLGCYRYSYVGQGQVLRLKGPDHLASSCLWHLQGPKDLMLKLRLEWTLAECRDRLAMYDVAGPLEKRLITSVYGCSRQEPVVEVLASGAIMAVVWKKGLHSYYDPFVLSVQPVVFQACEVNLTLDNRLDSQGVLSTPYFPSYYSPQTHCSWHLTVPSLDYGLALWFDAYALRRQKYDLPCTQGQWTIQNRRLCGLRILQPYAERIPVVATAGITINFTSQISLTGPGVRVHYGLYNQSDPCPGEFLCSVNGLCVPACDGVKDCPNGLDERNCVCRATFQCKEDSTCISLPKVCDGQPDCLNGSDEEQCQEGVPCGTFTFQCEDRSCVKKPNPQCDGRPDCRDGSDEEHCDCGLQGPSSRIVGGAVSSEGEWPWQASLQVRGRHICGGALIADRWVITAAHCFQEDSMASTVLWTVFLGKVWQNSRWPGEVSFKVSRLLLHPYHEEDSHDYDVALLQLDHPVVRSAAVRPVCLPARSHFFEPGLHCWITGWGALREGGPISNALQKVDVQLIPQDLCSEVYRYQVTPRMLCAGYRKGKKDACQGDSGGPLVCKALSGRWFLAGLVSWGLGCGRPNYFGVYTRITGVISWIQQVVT
Protocol: (§1) The selectivities of the strongest furin inhibitors 3, 5, 6, and FI were assessed using commercially available, purified, recombinant proteases, namely, matriptase-1 (MT1) and matriptase-2 (MT2). Both enzymes belong to the type II transmembrane serine proteases, present trypsin-like specificity, and share high structural similarity but differ in biological activity.[33] […]
(§2) The IC50 values (inhibitor concentrations giving 50% inhibition of enzyme activity) were calculated from plots of enzyme activity (% of control sample) versus the inhibitor’s concentration using a four-parameter fit model (GraFit 5.0.12 Erithacus Software Ltd.). The IC50 values were determined from triplicate measurements with at least seven different inhibitor concentrations. The K i values […] were calculated using the Cheng-Prusoff equation, assuming the competitive mode of inhibition, according to the following relationship: IC50 = K i(1+S/Km). All measurements were performed using a Fluostar Omega microplate reader (BMG Labtech, Germany) and 96-well black plates (BRAND, Germany). Recombinant human matriptase-1/ST14 catalytic domain was purchased from R&D Systems, USA. Recombinant human matriptase-2 was obtained from Enzo Life Sciences, Switzerland.
(§3) Soluble human recombinant furin was kindly gifted by Dr Anna Kwiatkowska (group of Prof. Robert Day from Université de Sherbrooke).4
(§4) The following assay buffers were used: […] (matriptase-1 and matriptase-2), pH 7.5 100 mM HEPES with 1 mM CaCl 2 and 1.8 mg/mL BSA (furin). The substrates used in the assays were as follows: for matriptase-1 and matriptase-2 Boc-Gln-Ala-Arg-AMC (Pepta Nova, Germany) in final concentration of 5 µM, for furin […] (Pepta Nova, Germany) in final concentration of 20 µM. Enzymes concentrations were as follows: 1.25 ng/mL of matriptase-1, 1.51 U/mL for matriptase-2, and 1.1 nM for furin. In the case of matriptase-1 and matripase-2 concentrations were calculated according to information provided by the suppliers.
(§5) In short, the tested compounds were added to the appropriate protease in different concentrations and incubated in an assay buffer at 37 °C for 30 min. […] Reactions were monitored for at least 40 min at 37 °C. […] The percentage inhibition of an enzyme was calculated relative to the control sample without an inhibitor. The K m value for furin substrate was determined by incubating the enzyme with its substrate in various concentrations as recommended.5 Plots of the substrate concentration versus the initial reaction velocity were analyzed according to Michaelis-Menten equation using GraFit 5.0.12 Erithacus Software Ltd. A double reciprocal (Lineweaver-Burk) plot was used to determine the Michaelis constant K m value. […]

matriptase-1 (MT1) = target: T2, matriptase-1 (MT1) (Homo sapiens, UniProt Q9Y5Y6); assay: Selectivity assay against matriptase-1; type: biochemical; details: Figure S1
T2 construct: Recombinant human matriptase-1/ST14 catalytic domain; purchased R&D Systems, USA
T2 sequence (Q9Y5Y6 615-854 limits assumed): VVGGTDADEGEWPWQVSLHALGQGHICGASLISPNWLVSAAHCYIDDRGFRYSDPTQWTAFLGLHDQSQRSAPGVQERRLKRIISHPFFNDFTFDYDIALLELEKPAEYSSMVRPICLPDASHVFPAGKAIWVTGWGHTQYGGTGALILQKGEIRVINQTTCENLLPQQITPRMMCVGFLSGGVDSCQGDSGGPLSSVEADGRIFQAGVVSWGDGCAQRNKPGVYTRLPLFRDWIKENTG
Protocol: as §1, §2, §3, §4, §5

| activity in assay with MT2 (matriptase-2 (MT2)) | activity against MT1 (matriptase-1 (MT1)) | Compound |
| --- | --- | --- |
| only irrelevant activity | not active | CC[C@H](C)[C@@H]1NC(=O)[C@@H]2CCCN2C(=O)[C@@H]2CCCN2C(=O)[C@H]([C@@H](C)CC)NC(=O)[C@H](CO)NC(=O)[C@H](CCCCN)NC(=O)[C@H](CCCCN)NC(=O)[C@@H](NC(=O)[C@H](CCCNC(=N)N)NC(=O)[C@@H](N)CCCCN)CSSC[C@@H](C(=O)N[C@@H](Cc2ccccc2)C(N)=O)NC1=O [FI, Lys-Arg-Cys(&)-Lys-Lys-Ser-Ile-Pro-Pro-Ile-Cys(&)-Phe-NH2, reference compound] (H-KRCKKSIPPICF-NH2; disulfide 3-11; N-terminus assumed) |
| only irrelevant activity | not active | CC[C@H](C)[C@@H]1NC(=O)[C@@H]2CCCN2C(=O)[C@@H]2CCCN2C(=O)[C@H]([C@@H](C)CC)NC(=O)[C@H](CO)NC(=O)[C@H](CCCCN)NC(=O)[C@H](CCCCN)NC(=O)[C@@H](NC(=O)[C@H](CCCNC(=N)N)NC(=O)[C@H](CCCNC(=N)N)NC(=O)[C@@H](N)CCCNC(=N)N)CSSC[C@@H](C(=O)N[C@@H](Cc2ccccc2)C(N)=O)NC1=O [inhibitor 3, Arg-Arg-Arg-Cys(&)-Lys-Lys-Ser-Ile-Pro-Pro-Ile-Cys(&)-Phe-NH2] (H-RRRCKKSIPPICF-NH2; disulfide 4-12) |
| only irrelevant activity | not active | CC[C@H](C)[C@@H]1NC(=O)[C@@H]2CCCN2C(=O)[C@@H]2CCCN2C(=O)[C@H]([C@@H](C)CC)NC(=O)[C@H](CO)NC(=O)[C@H](CCCCN)NC(=O)[C@H](CCCCN)NC(=O)[C@@H]2CSSC[C@H](NC1=O)C(=O)N[C@@H](Cc1ccccc1)C(=O)N[C@@H](CCCCN)C(=O)N[C@@H](CCCNC(=N)N)C(=O)N[C@@H](CCCNC(=N)N)C(=O)N2 [inhibitor 5, &^1Lys-Arg-Arg-Cys(&^2)-Lys-Lys-Ser-Ile-Pro-Pro-Ile-Cys(&^2)-Phe&^1] (cyclo(KRRCKKSIPPICF); disulfide 4-12) |
| only irrelevant activity | not active | CC[C@H](C)[C@@H]1NC(=O)[C@@H]2CCCN2C(=O)[C@@H]2CCCN2C(=O)[C@H]([C@@H](C)CC)NC(=O)[C@H](CO)NC(=O)[C@H](CCCCN)NC(=O)[C@H](CCCCN)NC(=O)[C@@H]2CSSC[C@H](NC1=O)C(=O)N[C@@H](Cc1ccccc1)C(=O)N[C@@H](CCCNC(=N)N)C(=O)N[C@@H](CCCNC(=N)N)C(=O)N[C@@H](CCCNC(=N)N)C(=O)N2 [inhibitor 6, &^1Arg-Arg-Arg-Cys(&^2)-Lys-Lys-Ser-Ile-Pro-Pro-Ile-Cys(&^2)-Phe&^1] (cyclo(RRRCKKSIPPICF); disulfide 4-12) |
